These results are taken from PubChem BioAssay (NCI).

Holding throughout (test): DTP human tumour cell line panel, 48 h
In assay [1] the test system is MALME-3M melanoma.
The test system of assay [2] is LOX IMVI melanoma.
In assay [3] the test system is UO-31 renal.
The subject of assay [4] is A549 NSCLC.
Assay [5] concerns OVCAR-5 ovarian.
Assay [6] has as its system HT29 colon.
Assay [7] concerns HOP-92 NSCLC.
For assay [8], the system named is SF-539 CNS.
Assay [9] has as its system SK-OV-3 ovarian.

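All cell lines were grown in 96-well plates and treated with compound for 48 hours. GI50 marks 50% less growth. Definition used: TGI = concentration required for complete inhibition of growth.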

Regarding `NC1=NN(c2ccccc2)C(=O)C1/C(=N\NC(=O)c1cc2ccccc2cc1O)C(=O)Nc1cccc(C(F)(F)F)c1` (stereo not drawn), the TGI in [1] is > 100 µM; in assay [2], > 100 µM; in [3] it was > 100 µM; in [4] it was > 100 µM; in assay [5], 68.4 µM; in assay [6] it was > 100 µM. Also, the TGI in assay [7] is > 100 µM.
As for `CC(=O)[CH-]C(=O)c1ccccc1.CC(=O)[CH-]C(=O)c1ccccc1.CC[C@H](/C=C/C(C)[C@H]1CCC2[C@@H]3CC=C4C[C@@H]([O-])CC[C@]4(C)C3CC[C@@]21C)C(C)C.CC[O-].[Ti+4]` (stereo partly drawn), the GI50 in assay [1], in assay [2], in assay [3], in [4], in [5] and in assay [6] was > 100 µM in each case. The GI50 in [8] is > 100 µM; in assay [9], > 100 µM; in assay [7] it was 95.3 µM. Moreover, the TGI in assay [1], in assay [2], in [3], in [4], in assay [5] and in [6] was > 100 µM in each case. Moreover, the TGI in assay [8], in [9] and in assay [7] was > 100 µM throughout.
On to `CC(=O)[CH-]C(=O)c1ccccc1.CC(=O)[CH-]C(=O)c1ccccc1.CC1(C)OCC(C2OC3OC(C)(C)OC3C2[O-])O1.CC1(C)OCC(C2OC3OC(C)(C)OC3C2[O-])O1.[Ti+4]` (stereo not drawn), for which the GI50 in assay [1] is 10.5 µM; in assay [2] it was 13.7 µM; in [4], 15.3 µM; in assay [5], 12.3 µM; in assay [6] it was 16.3 µM; in [8], 13.6 µM. In addition, the GI50 in assay [9] was 14.9 µM; in assay [7] it was 6.84 µM. Moreover, the concentration for total growth inhibition (TGI) stood at 28.5 µM in assay [1]; 34.2 µM in [2]; 38 µM in assay [4]; 29 µM in assay [5]; 40.6 µM in assay [6]; 28 µM in assay [8]. Further, the figures for the TGI in assay [9] and in assay [7] were 50.3 µM and 22.8 µM, respectively.
For the compound `Cn1c2ccccc2c(=O)c2c(O)cc3c(c21)CC(C1(C)CO1)O3` (stereo not drawn), the TGI in assay [1] is 28.4 µM; in assay [2], 0.0613 µM; in assay [3], 4.09 µM; in assay [4], 28.2 µM; in [5], 23.4 µM; in assay [6], 20 µM. For the same compound, the total growth inhibition concentration (TGI) in [8] amounted to 10.8 µM; in assay [9], 24.1 µM; in assay [7], 30.8 µM.
For the compound `COC(=O)C(CC(C)=O)CS(=O)(=O)CC(=O)C(=O)Nc1cccc([N+](=O)[O-])c1` (stereo not drawn), the TGI in assay [1], in assay [2], in assay [3], in assay [4], in assay [5] and in [8] was > 100 µM throughout. In addition, the TGI in assay [9] and in assay [7] was > 100 µM each time.
Take `CN(C)CCC=C1c2ccccc2C(C)(C)c2ccccc21`: the GI50 in assay [2] was 9.46 µM; in assay [3], 4.8 µM; in assay [4], 15.8 µM; in assay [5], 15.9 µM; in [6], 3.06 µM; in assay [8], 10.4 µM. Moreover, the GI50 is 15.5 µM in assay [9] and 1.88 µM in assay [7]. Moreover, the TGI in assay [2] was found to be 22 µM; in assay [3], 20.7 µM; in assay [4], 32 µM; in assay [5], 31.4 µM; in assay [6], 13.6 µM; in assay [8] it was 22.2 µM. In addition, the TGI was 28.8 µM in assay [9] and 14.7 µM in assay [7].
Consider `Cc1cc(=O)n2c3c(c4c(cc13)c(CO)cc(=O)n4C)OC2`, for which the TGI in [1] was 28.5 µM; in assay [2], 21.1 µM; in [3], 40.2 µM; in assay [4], > 100 µM; in assay [5], 72.3 µM; in assay [6], > 100 µM. In addition, the TGI in assay [8] is 51.5 µM; in [9], > 100 µM; in [7] it was 97.1 µM.
As for `O=C(N=Nc1c(O)[nH]c2ccccc12)c1oc2ccccc2c1CN1CCN(c2ccccc2)CC1`, the GI50 in [1] was 0.724 µM; in assay [2] it was 2.04 µM; in assay [3], 1.01 µM; in [4], 1.54 µM; in assay [5], 2.54 µM; in assay [6] it was 4.06 µM. In addition, the GI50 in assay [8] was 2.5 µM; in [9], 7.3 µM; in assay [7] it was 1.25 µM. Moreover, the TGI in assay [1] was 1.7 µM; in [2], 7.84 µM; in assay [3], 2.94 µM; in [4] it was 8.21 µM; in assay [5], 11.6 µM; in assay [6] it was > 50 µM. For the same compound, the TGI in [8] was 8.53 µM; in [9] it was 15.7 µM; in assay [7], 5.78 µM.
Consider `Cn1cc(-c2csc(-c3cn(CCCCN4CCCCC4)c4ccc(F)cc34)n2)c2cccnc21`, for which the GI50 in assay [4] is 1.67 µM; in assay [5] it was 2.86 µM; in assay [6], 1.7 µM; in assay [9], 16.2 µM; in assay [7], 4.81 µM. The TGI in [4] was 3.04 µM; in assay [5], 11.3 µM; in assay [6], 3.16 µM; in [9], 32.7 µM; in assay [7], 27.8 µM.
On to `O=C(N/C(=C\c1ccc(/C=C(\NC(=O)c2ccccc2)c2nc3cc(Cl)ccc3[nH]2)cc1)c1nc2cc(Cl)ccc2[nH]1)c1ccccc1`, for which the TGI in assay [1], in assay [2], in assay [3], in assay [4], in [5] and in assay [6] was > 100 µM in each case. Also, the TGI was 78.5 µM in [8], > 100 µM in [9] and > 100 µM in [7].
Take `NCCCCCCCCCCCn1c2c(c3ccccc3c1=O)C(=O)c1ccccc1-2`: the GI50 was 16.7 µM in assay [1]; 5 µM in [2]; 2.01 µM in [3]; 20 µM in [4]; 2.48 µM in assay [5]; 20.6 µM in assay [8]. Besides, the figures for the GI50 in [9] and in assay [7] were 14.3 µM and 2.65 µM, respectively. Besides, the TGI in assay [1] came to 53.6 µM; in assay [2], 21.1 µM; in assay [3], 4.07 µM; in assay [4] it was 74.7 µM; in [5] it was 9.01 µM; in [8], 40.2 µM. Besides, the TGI was determined as 34.5 µM in [9] and 7.05 µM in [7].
Regarding `COC(=O)NN1C(C)=C(C(=O)OC)C2(C#N)C(C(=O)OC)=C(C)N(NC(=O)OC)C12N` (stereo not drawn), the TGI in assay [1], in assay [2], in assay [3], in assay [4], in assay [5] and in assay [6] was > 100 µM in each case. Moreover, the TGI in [8], in assay [9] and in assay [7] was > 100 µM in each case.
Turning to `Cc1cc(Cl)ccc1NC(=O)CCCC(=O)C1CCC/C1=N\NC(=O)CC#N` (stereo not drawn), the TGI in [1], in assay [3], in assay [4], in [5], in [6] and in assay [8] was > 100 µM each time. For the same compound, the TGI in [9] and in assay [7] was > 100 µM each time.
With `COc1ccc(-c2nc(Nc3ccc(-c4nc5ccccc5[nH]4)cc3)nc(N3CCOCC3)n2)cc1`, the GI50 is 2.05 µM in assay [1]; 2.16 µM in [3]; 3.24 µM in assay [4]; 2.7 µM in assay [5]; 2.23 µM in assay [6]; 1.63 µM in [8]. In addition, the GI50 is 2.37 µM in [9] and 1.8 µM in [7]. The TGI in assay [1] is 3.95 µM; in assay [3], 5.64 µM; in assay [4], > 100 µM; in assay [5], 8.9 µM; in assay [6], 5.39 µM; in [8], 3.72 µM. The TGI in assay [9] is 5.53 µM; in assay [7] it was 3.74 µM.
Consider `CCOC(=O)c1ccc2c(c1)nc(/C=C/c1ccc(Cl)cc1)n2-c1cc(C(C)(C)C)[nH]n1`, for which the GI50 in assay [1] is 2.8 µM; in assay [3], 2.71 µM; in assay [4], 3.64 µM; in assay [5], 18.5 µM; in assay [6] it was 11.3 µM; in [8], 2.09 µM. Moreover, the GI50 in assay [9] is 4.28 µM. The TGI is 18.5 µM in assay [1]; 25.3 µM in [3]; 19.7 µM in [4]; > 100 µM in [5]; > 100 µM in [6]; 5.09 µM in [8]. The TGI in assay [9] was found to be 14.8 µM.

As a reminder, the TGI is the concentration at which net growth stops. In general, GI50 refers to the concentration at which growth is held to half of that of the control.
